Test results: ChEMBL document CHEMBL6182889, “Discovery of the first-in-class DOT1L PROTAC degrader” (Eur J Med Chem, 2025)
Active and inactive are the calls of the source. No cut-off for these calls is given here.

How the values were obtained:
[1] = target: T1, von Hippel-Lindau disease tumor suppressor/Histone-lysine N-methyltransferase, H3 lysine-79 specific (Homo sapiens, UniProt Q8TEK3+P40337); test: PROTAC activity at VHL/DOTIL in mixed-lineage leukemia rearranged (MLL-r) human THP-1 cells assessed as induction of DOT1L degradation by measuring fold change in DOTIL protein level at 0.3 uM incubated for 24 hrs by western blot analysis relative to control; assay type: cell-based
[2] = target: T1, von Hippel-Lindau disease tumor suppressor/Histone-lysine N-methyltransferase, H3 lysine-79 specific; test: PROTAC activity at VHL/DOTIL in mixed-lineage leukemia rearranged (MLL-r) human THP-1 cells assessed as induction of DOT1L degradation by measuring fold change in DOTIL protein level at 3 uM incubated for 24 hrs by western blot analysis relative to control; assay type: cell-based
[3] = target: Histone-lysine N-methyltransferase, H3 lysine-79 specific (Homo sapiens) (UniProt Q8TEK3); test: Inhibition of human DOT1L using oligonucleosomes and SAM as substrate at 1.1 to 3.3 uM by radiometric Hotspot assay; settings: dose 1.1-3.3 µM
MV4-11 = test: Antiproliferative activity against mixed-lineage leukemia rearranged (MLL-r) human MV4-11 cells assessed as inhibition of cell growth incubated for 7 days by CCK-8 assay; assay type: functional; settings: time 7.0 day
MOLM-13 = test: Antiproliferative activity against mixed-lineage leukemia rearranged (MLL-r) human MOLM-13 cells assessed as inhibition of cell growth incubated for 7 days by CCK-8 assay; assay type: functional, cell-based; settings: time 7.0 day
[4] = target: Histone-lysine N-methyltransferase, H3 lysine-79 specific (Homo sapiens) (UniProt Q8TEK3); test: Inhibition of human DOT1L using oligonucleosomes and SAM as substrate at 4.6 nM by radiometric Hotspot assay

T1 sequence (P40337 whole entry, looked up): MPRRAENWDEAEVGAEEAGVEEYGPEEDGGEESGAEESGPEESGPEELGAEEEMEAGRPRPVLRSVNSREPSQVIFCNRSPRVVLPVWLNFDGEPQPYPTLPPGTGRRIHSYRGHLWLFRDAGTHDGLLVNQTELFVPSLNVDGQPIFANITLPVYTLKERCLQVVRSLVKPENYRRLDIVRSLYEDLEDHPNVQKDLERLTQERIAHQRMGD
T1 sequence (Q8TEK3 whole entry, looked up): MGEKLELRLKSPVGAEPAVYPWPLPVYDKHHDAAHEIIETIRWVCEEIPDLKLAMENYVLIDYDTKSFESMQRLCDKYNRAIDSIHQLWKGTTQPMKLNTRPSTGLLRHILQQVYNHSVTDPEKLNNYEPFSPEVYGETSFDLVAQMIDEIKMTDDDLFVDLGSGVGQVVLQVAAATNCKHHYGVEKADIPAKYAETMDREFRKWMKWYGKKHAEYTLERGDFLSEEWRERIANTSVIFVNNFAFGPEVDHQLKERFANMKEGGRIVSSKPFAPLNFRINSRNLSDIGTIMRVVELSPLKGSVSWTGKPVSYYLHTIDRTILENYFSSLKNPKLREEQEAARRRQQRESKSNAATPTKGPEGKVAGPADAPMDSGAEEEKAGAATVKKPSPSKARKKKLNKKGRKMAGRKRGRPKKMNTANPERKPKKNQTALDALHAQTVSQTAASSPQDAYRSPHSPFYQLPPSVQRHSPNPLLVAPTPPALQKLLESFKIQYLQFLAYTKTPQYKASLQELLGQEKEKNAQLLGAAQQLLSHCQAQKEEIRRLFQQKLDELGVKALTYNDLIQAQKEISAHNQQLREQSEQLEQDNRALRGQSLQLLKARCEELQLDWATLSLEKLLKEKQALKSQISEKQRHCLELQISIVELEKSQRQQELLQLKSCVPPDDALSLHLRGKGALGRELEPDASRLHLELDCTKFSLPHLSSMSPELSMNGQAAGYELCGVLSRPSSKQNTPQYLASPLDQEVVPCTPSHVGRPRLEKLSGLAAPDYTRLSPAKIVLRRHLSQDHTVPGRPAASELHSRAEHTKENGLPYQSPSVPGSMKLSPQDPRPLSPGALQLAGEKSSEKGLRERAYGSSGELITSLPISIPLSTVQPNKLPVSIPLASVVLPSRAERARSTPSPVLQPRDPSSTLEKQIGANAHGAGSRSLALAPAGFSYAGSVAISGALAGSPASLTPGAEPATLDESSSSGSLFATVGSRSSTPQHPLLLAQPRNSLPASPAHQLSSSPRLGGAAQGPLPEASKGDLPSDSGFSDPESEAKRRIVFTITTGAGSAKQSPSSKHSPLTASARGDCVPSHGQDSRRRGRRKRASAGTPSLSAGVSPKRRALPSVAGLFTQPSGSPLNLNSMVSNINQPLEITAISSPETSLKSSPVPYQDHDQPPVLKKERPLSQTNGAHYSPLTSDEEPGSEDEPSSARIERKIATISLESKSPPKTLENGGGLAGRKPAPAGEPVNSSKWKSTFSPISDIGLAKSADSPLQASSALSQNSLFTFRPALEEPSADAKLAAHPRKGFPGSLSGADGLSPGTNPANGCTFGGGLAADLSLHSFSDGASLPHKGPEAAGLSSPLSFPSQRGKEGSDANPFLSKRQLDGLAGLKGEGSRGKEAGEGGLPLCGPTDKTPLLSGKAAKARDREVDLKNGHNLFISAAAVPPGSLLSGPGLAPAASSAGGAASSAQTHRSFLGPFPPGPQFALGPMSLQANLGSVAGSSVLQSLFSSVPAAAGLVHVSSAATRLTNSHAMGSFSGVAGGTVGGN
Chain of Histone-lysine N-methyltransferase, H3 lysine-79 specific (Homo sapiens) (Q8TEK3 whole entry, looked up): as above

Compound `Cc1ncsc1-c1ccc([C@H](CC(=O)NCCNC(=O)COc2nc(N)nc(Nc3cc(S(N)(=O)=O)ccc3N[C@@H](c3cccc4c3OC(F)(F)O4)c3ncccc3Cl)n2)NC(=O)[C@@H]2C[C@@H](O)CN2C(=O)[C@@H](NC(=O)C2(F)CC2)C(C)(C)C)cc1` has a fold change (FC) [1] of 0.83 and a fold change (FC) [2] of 0.55.
In the case of `Cc1ncsc1-c1ccc(CNC(=O)[C@@H]2C[C@@H](O)CN2C(=O)[C@@H](NC(=O)CCCCCNC(=O)COc2nc(N)nc(Nc3cc(S(N)(=O)=O)ccc3N[C@@H](c3cccc4c3OC(F)(F)O4)c3ncccc3Cl)n2)C(C)(C)C)cc1`, the fold change (FC) [1] is reported as 1.52 and the fold change (FC) [2] is reported as 1.11.
In the case of `CC(=O)Nc1nc(Nc2cc(S(=O)(=O)NC(C)=O)ccc2N(C(C)=O)[C@@H](c2cccc3c2OC(F)(F)O3)c2ncccc2Cl)nc(OCC(=O)NCCCCCCNC(=O)C[C@H](NC(=O)C2CC(O)CN2C(=O)[C@@H](NC(=O)C2(F)CC2)C(C)(C)C)c2ccc(-c3scnc3C)cc2)n1` (single isomer, unassigned), the fold change (FC) [1] is reported as 1.1, the fold change (FC) [2] is reported as 1.11 and the inhibition [3] is reported as greater than 50%. For the same compound, the Activity (MV4-11) was “inactive” and the Activity (MOLM-13) was “inactive”.
In the case of `Cc1ncsc1-c1ccc([C@H](CC(=O)NCCCCCCNC(=O)COc2nc(N)nc(Nc3cc(S(N)(=O)=O)ccc3N[C@@H](c3cccc4c3OC(F)(F)O4)c3ncccc3Cl)n2)NC(=O)[C@@H]2C[C@H](O)CN2C(=O)[C@@H](NC(=O)C2(F)CC2)C(C)(C)C)cc1`, the fold change (FC) [1] is reported as 0.99, the fold change (FC) [2] is reported as 1.05 and the inhibition [4] is reported as greater than 95%. The Activity (MV4-11) was “Active” and the Activity (MOLM-13) was “inactive”.
Compound `Cc1ncsc1-c1ccc([C@H](CC(=O)NCCCNC(=O)COc2nc(N)nc(Nc3cc(S(N)(=O)=O)ccc3N[C@@H](c3cccc4c3OC(F)(F)O4)c3ncccc3Cl)n2)NC(=O)[C@@H]2C[C@@H](O)CN2C(=O)[C@@H](NC(=O)C2(F)CC2)C(C)(C)C)cc1` has a fold change (FC) [1] of 0.72 and a fold change (FC) [2] of 0.28.
`COc1nc(N)nc(Nc2cc(S(N)(=O)=O)ccc2N[C@@H](c2cccc3c2OC(F)(F)O3)c2ncccc2Cl)n1` was tested, and the fold change (FC) [1] was 1.29, the fold change (FC) [2] was 1.57 and the Activity (MOLM-13) was “Active; Reduced Potency In Molm-13 Cells Relative To Mv4-11 Cells Observed”.
For `Cc1ncsc1-c1ccc([C@H](CC(=O)NCCCCCNC(=O)COc2nc(N)nc(Nc3cc(S(N)(=O)=O)ccc3N[C@@H](c3cccc4c3OC(F)(F)O4)c3ncccc3Cl)n2)NC(=O)[C@@H]2C[C@@H](O)CN2C(=O)[C@@H](NC(=O)C2(F)CC2)C(C)(C)C)cc1`, the fold change (FC) [1] was 0.9 and the fold change (FC) [2] was 0.36.
With `Cc1ncsc1-c1ccc(CNC(=O)[C@@H]2C[C@@H](O)CN2C(=O)[C@@H](NC(=O)CCCNC(=O)COc2nc(N)nc(Nc3cc(S(N)(=O)=O)ccc3N[C@@H](c3cccc4c3OC(F)(F)O4)c3ncccc3Cl)n2)C(C)(C)C)cc1` the fold change (FC) [1] was 0.99 and the fold change (FC) [2] was 1.2.
With `CC(C)N(C[C@H]1O[C@@H](n2cnc3c(N)ncnc32)[C@H](O)[C@@H]1O)[C@H]1C[C@@H](CCc2nc3cc(C(C)(C)C)ccc3[nH]2)C1` the fold change (FC) [1] was 1.07, the fold change (FC) [2] was 1.03 and the Activity (MOLM-13) was “Active; Reduced Potency In Molm-13 Cells Relative To Mv4-11 Cells Observed”.
Compound `Cc1ncsc1-c1ccc([C@H](CC(=O)NCCCCCCCNC(=O)COc2nc(N)nc(Nc3cc(S(N)(=O)=O)ccc3N[C@@H](c3cccc4c3OC(F)(F)O4)c3ncccc3Cl)n2)NC(=O)[C@@H]2C[C@@H](O)CN2C(=O)[C@@H](NC(=O)C2(F)CC2)C(C)(C)C)cc1` has a fold change (FC) [1] of 0.36 and a fold change (FC) [2] of 0.33.
For `Cc1ncsc1-c1ccc(CNC(=O)[C@@H]2C[C@@H](O)CN2C(=O)[C@@H](NC(=O)CCCCNC(=O)COc2nc(N)nc(Nc3cc(S(N)(=O)=O)ccc3N[C@@H](c3cccc4c3OC(F)(F)O4)c3ncccc3Cl)n2)C(C)(C)C)cc1`, the fold change (FC) [1] was 0.99 and the fold change (FC) [2] was 1.17.
`Cc1ncsc1-c1ccc(CNC(=O)[C@@H]2C[C@@H](O)CN2C(=O)[C@@H](NC(=O)CCCCCCCNC(=O)COc2nc(N)nc(Nc3cc(S(N)(=O)=O)ccc3N[C@@H](c3cccc4c3OC(F)(F)O4)c3ncccc3Cl)n2)C(C)(C)C)cc1` showed a fold change (FC) [1] of 1.01 and a fold change (FC) [2] of 0.83.
Work on `Cc1ncsc1-c1ccc([C@H](CC(=O)NCCCCCCCCNC(=O)COc2nc(N)nc(Nc3cc(S(N)(=O)=O)ccc3N[C@@H](c3cccc4c3OC(F)(F)O4)c3ncccc3Cl)n2)NC(=O)[C@@H]2C[C@@H](O)CN2C(=O)[C@@H](NC(=O)C2(F)CC2)C(C)(C)C)cc1` yielded a fold change (FC) [1] of 0.52 and a fold change (FC) [2] of 0.56.
Compound `Cc1ncsc1-c1ccc([C@H](CC(=O)NCCCCNC(=O)COc2nc(N)nc(Nc3cc(S(N)(=O)=O)ccc3N[C@@H](c3cccc4c3OC(F)(F)O4)c3ncccc3Cl)n2)NC(=O)[C@@H]2C[C@@H](O)CN2C(=O)[C@@H](NC(=O)C2(F)CC2)C(C)(C)C)cc1` has a fold change (FC) [1] of 0.58 and a fold change (FC) [2] of 0.6.
Compound `Cc1ncsc1-c1ccc(CNC(=O)[C@@H]2C[C@@H](O)CN2C(=O)[C@@H](NC(=O)CCCCCCNC(=O)COc2nc(N)nc(Nc3cc(S(N)(=O)=O)ccc3N[C@@H](c3cccc4c3OC(F)(F)O4)c3ncccc3Cl)n2)C(C)(C)C)cc1` has a fold change (FC) [1] of 0.99 and a fold change (FC) [2] of 1.17.
Work on `Cc1ncsc1-c1ccc(CNC(=O)[C@@H]2C[C@@H](O)CN2C(=O)[C@@H](NC(=O)CCNC(=O)COc2nc(N)nc(Nc3cc(S(N)(=O)=O)ccc3N[C@@H](c3cccc4c3OC(F)(F)O4)c3ncccc3Cl)n2)C(C)(C)C)cc1` yielded a fold change (FC) [1] of 0.82 and a fold change (FC) [2] of 0.95.
